From article PMC9599757, “Leveraging the Structure of DNAJA1 to Discover Novel Potential Pancreatic Cancer Therapies” (Biomolecules, 2022)
Blank lines part the entries; values can stand above or below the molecule they belong to.

What was measured:
[1] = biological target: T1, DNAJA1 (Homo sapiens, UniProt P31689); assay: ITC; STD NMR and 2D 1H-15N HSQC chemical shift perturbation; format: binding
T1 construct: DNAJA1-107 (residues 1 to 107, J-domain and linker, N-terminal 6x-His tag)

[2] = biological target: T1, DNAJA1; assay: 1D […] NMR line broadening and 2D 1H-15N HSQC chemical shift perturbation; format: binding
[3] = biological target: T2, DNAJA1-107 (residues 1 to 107 of human DnaJ homolog subfamily A member 1) (human, UniProt P31689 1-107); assay: NMR titration; 15N-DNAJA1-107 mixed with ANT3 (232-272) at DNAJA1-107:ANT3 molar ratios 10:1, 5:1 and 1:1 (50 uM each at equal molarity); 10 mM Tris-HCl, 1 mM EDTA, 6% trehalose, pH 8.0; 2D 1H-15N HSQC; immediate, concentration-dependent precipitation on mixing taken as the sign of interaction; settings: both partners purified
T2 construct: The methods name an N-terminal 6x-histidine tag; 15N-labelled for the NMR experiment with ANT3; source: for the pull-down immobilised on cobalt resin; not shown: His6, N-terminal, kept

Molecule: O=C(c1ccc(Br)s1)N1CCN(c2ccc(F)cc2)CC1 [compound 9101204, 1-[(5-bromo-2-thienyl)carbonyl]-4-(4-fluorophenyl)piperazine]
- Kd [1]: 0.1 ± 0.3 µM

Molecule: Nc1ncnc2c1ncn2[C@@H]1O[C@H](COP(=O)(O)OP(=O)(O)O)[C@@H](O)[C@H]1O [ADP]
- 1D 31P NMR line broadening and 2D 1H-15N HSQC chemical shift perturbation [2]: ADP, O-phospho-L-serine, O-phospho-L-tyrosine, and dihydroxyacetone phosphate exhibited specific binding to DNAJA1-107

Molecule: CCOc1ccc(-c2cc(OC(=O)c3cccs3)c3c(C)oc(C)c3c(=O)c2)cc1 [compound 7727968, 6-(4-ethoxyphenyl)-1,3-dimethyl-4-oxo-4H-cyclohepta[c]furan-8-yl 2-thiophenecarboxylate]
- Kd [1]: 10 µM

- binding result [3]: binds
B1: Recombinant Human ADP/ATP translocase 3 (ANT3), amino acids 232-272 (domain or fragment, UniProt P12236 232-272, looked up)
chain: DTVRRRMMMQSGRKGADIMYTGTVDCWRKIFRDEGGKAFFK
notes: ADP/ATP translocase 3 (ANT3), human, amino acids 232-272; The construct included an N-terminal 6xHis-KSI tag to aid purification and solubility; also called ANT3 construct; source: bought: CUSABIO, catalog number CSB-EP021520HU1
